According to patent USRE40667E1, “[R-(R*R*)]-2-(4-fluorophenyl)-β,δ-dihydroxy-5-(1-methylethyl-3-phenyl-4-[(phenylamino)carbonyl]-1H-pyrrole-1-heptanoic acid, its lactone form and salts thereof” (Warner-Lambert Company LLC, priority 1989, dated 2009):

Tested on: biosynthesis of cholesterol
Experiment: CSI screen (cholesterol synthesis inhibition) as disclosed in U.S. Pat. No. 4,681,893
Type: biochemical
Text: The compounds according to present invention and especially according to the compound of the formula I inhibit the biosynthesis of cholesterol as found in the CSI screen that is disclosed in U.S. Pat. No. 4,681,893 which is now also incorporated by reference therefor. The CSI data of the compound I, its enantiomer the compound II and the racemate of these two compounds are as follows: […]

Row | SMILES | IC50 [nM]
1 | CC(C)c1c(C(=O)Nc2ccccc2)c(-c2ccccc2)c(-c2ccc(F)cc2)n1CCC(O)CC(O)CC(=O)O (single isomer, unassigned) [[S—(R*R*)] isomer] | 440
2 | CC(C)c1c(C(=O)Nc2ccccc2)c(-c2ccccc2)c(-c2ccc(F)cc2)n1CC[C@@H](O)C[C@@H](O)CC(=O)O (single isomer, unassigned) [[R—(R*R*)] isomer, [R-(R*,R*)]-2-(4-fluorophenyl)-β,δ-dihydroxy-5-(1-methylethyl)-3-phenyl-4-[(phenylamino)carbonyl]-1H-pyrrole-1-heptanoic acid] | 4.4
